One substance from patent US6498137B1, “Aerosol cleaning composition containing an organic acid and a spore forming microbial composition” (Spartan Chemical Company, Inc., priority 2001, dated 2002) can be followed below.

The subject of one test is Bacillus spores. Kind of test: Nisin in letheen broth sub-culture: out-growth of Bacillus spores. The format is cell-based. As to conditions: 0.1 μg/ml nisin in letheen broth. As for the experimental part:
(§1) Nisin is not an ingredient in the product formulation. It is a modification to the AOAC test method. Specifically, when setting up the test sub-culture 0.1 μg/ml of nisin is added to the letheen broth.

The test system of the next test is test organism. Put plainly: Nisin in letheen broth sub-culture: effect on the test organism. The format is cell-based. The note with it: 0.1 μg/ml nisin in letheen broth. As for the experimental part: as §1

For nisin, the “out-growth of Bacillus spores transferred on the carrier” value with Bacillus spores is listed as “inhibits out-growth”. In the test on test organism, the “bacteriostatic effect on the test organism” value is listed as “no bacteriostatic effect”.
